In patent publication US4892883A, “Pharmaceutical compositions containing bilobalide for the treatment of neuropathies Ai” (Willman - Schwabe GmbH & Co., priority 1973, dated 1990):
Like-named read-outs stand apart in the source and are kept apart here.

What was measured:
[1] = test system: spontaneous climbing behaviour (SCB) of mice; assay: Spontaneous climbing behaviour (SCB) of mice (Table X); assay type: in vivo, mouse (NMRI); conditions: for influence of antagonists on the SCB activity of extract and Physostigmine: Scopolamine, Sulpiride, Naloxone, other receptor antagonists; for Mean climbing score, animal: M ± SD
Experimental: In one of these experiments the influence of the extract on the spontaneous climbing behaviour (SCB) was examined according to the method described by Marcais et al. (Psychopharmacology; 56, 233-234, 1978).
*The substances were applied 20 min before the observation period (30
min). In the combination experiments, the second substance was
administered 5 min before the first substance.

[2] = test system: mice; assay: Influence on anti-hypoxic effects of Pilocarpine and Physostigmine (Table XI); assay type: in vivo, mouse (NMRI); conditions: for Survival time, treated animals: M ± SEM
Experimental: The protective actions of the extract against hypoxia were compared in a Hypobare-Hypoxia model, according to a method described by Nakanishi et al (Life Sci 13, 467-478, 1973). 4 mice (2 control animals and 2 treated animals) were put into a vacuum desiccator (3.51). A negative pressure of 170 mmHg was generated therein within 20 sec. The survival times of the animals under these hypoxia conditions were determined. The test substance was administered intraperitoneally in an aqueous solution 30 min before the experiment began. The control animals were only treated with solvents. The maximum observation period of the survival times was 8 min. The survival time of the treated animals tolerating the hypoxia condition longer than this period was assumed to be 480 sec. None of the control animals survived longer than 180 sec. The percentage of the treated animals surviving longer than 3 min was defined as %-effect of the extract.
The anti-hypoxic effects of the cholinomimetics Pilocarpine and the acetylcholine-esterase inhibitor Physostigmine entering the brain are known. […] The method applied for these experiments was similar to the above-described Hypobare-Hypoxia model. Groups of mice were treated orally with an aqueous suspension of the extract (or with water). Pilocarpine and Physostigmine, respectively (or water) were administered 30 min later. The hypoxia tests were carried out 30 min after the second application.

[3] = test system: mice; assay: Analgetic effect, hotplate test (Table XII); assay type: in vivo, mouse (NMRI); conditions: for Latent period: M ± SD
Experimental: (§1) The analgesia tests were carried out according to the hotplate test (J. Pharm. Pharmacol., 9, 381, 1957) and the tests for hypothermia, tremor and salivation according to the method described by Gouret (J. Pharmacol., 4, 105-128, 1973). Subsequently, the mice were treated with extract and Physostigmine etc., in a manner similar to the method described above in connection with the hypoxia tests.
A The percentage of animals having a latent period of more than 60 sec.

[4] = test system: brain and nerves; conditions: brain of many species, including humans; cited from earlier work
[5] = test system: brain and nerves; conditions: brain of various species; cited from earlier work
[6] = test system: Oxotremorine induced hypothermia, tremor and salivation in mice; assay: Oxotremorine induced hypothermia, tremor and salivation (Table XIII); assay type: in vivo, mouse (NMRI); conditions: for Hypothermia: M ± SD
Experimental: as §1

[7] = Test 1, Physostigmine 0.1 mg/kg s.c.
[8] = Test 1, Physostigmine 0.2 mg/kg s.c.

CCN1CCCC1CNC(=O)c1cc(S(N)(=O)=O)ccc1OC (centres unmarked) [Sulpiride]
influence of antagonists on the SCB activity of extract and Physostigmine [1]: do not influence the effects of Physostigmine and the extract

CNC(=O)Oc1ccc2c(c1)[C@]1(C)CCN(C)[C@@H]1N2C [Physostigmine]
% effect ([2]; Physostigmine 0.2 mg/kg i.p.): 20% | Survival time, treated animals ([2]; Physostigmine 0.2 mg/kg i.p., control 80.6 ± 9.64): 190.63 ± 26.2 s | influence of antagonists on the SCB activity of extract and Physostigmine [1]: inhibited only by specific anti-cholinergic agents entering the brain, such as Scopolamine and not influenced by antagonists to other receptors | Mean climbing score, animal ([1]; Test II, 0.10 mg/kg s.c.): 1.39 ± 0.92 | Mean climbing score, animal ([1]; Test III, 0.025 mg/kg s.c.): 5.75 ± 1.28 | Mean climbing score, animal ([1]; Test III, 0.05 mg/kg s.c.): 3.88 ± 2.23 | influence on SCB of mice ([1]; words): reduces the SCB of mice | % effect (animals with latent period of more than 60 sec) [3, 7]: 10% | Latent period [3, 7]: 31.1 ± 13.9 s | % effect (animals with latent period of more than 60 sec) [3, 8]: 50% | Latent period [3, 8]: 44.1 ± 17.69 s

Oc1c(Cl)cc(Cl)c(Cl)c1Cc1c(O)c(Cl)cc(Cl)c1Cl [hexachlorophene, 2,2'-methylene-bis(3,4,6-trichlorophenol)]
neurotoxic effect [4]: produces oedematous damage in the brain of many species, including humans

CN1[C@@H]2C[C@@H](OC(=O)[C@H](CO)c3ccccc3)C[C@H]1[C@@H]1O[C@@H]12 [Scopolamine]
Mean climbing score, animal ([1]; Test II, 0.25 mg/kg i.p.): 6.63 ± 1.42

CC[C@@H]1C(=O)OC[C@@H]1Cc1cncn1C [Pilocarpine]
% effect ([2]; Pilocarpine 2 mg/kg i.p.): 30% | Survival time, treated animals ([2]; Pilocarpine 2 mg/kg i.p., control 86.7 ± 6.82): 178.6 ± 24.8 s | % effect (animals with latent period of more than 60 sec) ([3]; Test 2, Pilocarpine 5 mg/kg s.c.): 10% | Latent period ([3]; Test 2, Pilocarpine 5 mg/kg s.c., control 15.74 ± 3.47): 24.9 ± 13.32 s

C[CH2][Sn]([Cl])([CH2]C)[CH2]C [triethyltin chloride]
neurotoxic effect [5]: brings about an increase in the water content in the brain of various species and induces specific myelopathy in the nerves

C=CCN1CC[C@]23c4c5ccc(O)c4O[C@H]2C(=O)CC[C@@]3(O)[C@H]1C5 [Naloxone]
influence of antagonists on the SCB activity of extract and Physostigmine [1]: do not influence the effects of Physostigmine and the extract

O=C1CCCN1CC#CCN1CCCC1 [Oxotremorine]
Salivation ([6]; Oxotremorine 0.1 mg/kg i.p.): 60% | Tremor ([6]; Oxotremorine 0.1 mg/kg i.p.): 0% | Hypothermia ([6]; Oxotremorine 0.1 mg/kg i.p.): 2.5 ± 0.82 °C | Salivation ([6]; Oxotremorine 0.2 mg/kg i.p.): 100% | Tremor ([6]; Oxotremorine 0.2 mg/kg i.p.): 50% | Hypothermia ([6]; Oxotremorine 0.2 mg/kg i.p.): 5.23 ± 1.19 °C
